Test results published in patent US8703783B2, “Purinone derivatives as HM74A agonists” (Incyte Corporation, priority 2006, dated 2014).
Each block holds one compound with its values, some of them ahead of it.

Experiments:
human HM74a [1] = molecular target: T1, human HM74a (Homo sapiens, UniProt Q8TDS4); experiment: cAMP assay; assay type: cell-based; set-up: expressed in transfected cells; details: CHO cells stably transfected with human HM74a; 5 μM forskolin; inhibition relative to DMSO controls
Procedure: CHO cells stably transfected with human HM74a were seeded at 7,500 cells/well in a 96-well plate in HAMS F12 medium with 10% FBS. The plate was incubated overnight at 37° C. and 5% CO2. The test compounds were prepared in a stimulation buffer containing 1×HANKS, 20 mM HEPES, 5 μM forskolin, and 0.25 mM IBMX. The media from the cell plate was removed before adding 30 μL of the test compounds. After 30 minute incubation at 37° C. and 5% CO2, the cAMP level was assayed using HitHunter cAMP XS assay kit (DiscoverX, CA). IC50 determinations were based on compound inhibition relative to DMSO controls.

human HM74a [2] = molecular target: T1, human HM74a; experiment: GTPγS recruitment assay; assay type: biochemical; set-up: expressed in transfected cells; host or cells: HEK293 (transient transfection; membranes); details: membranes of HEK293 cells transfected with human HM74a and Gα0; 35S GTPγS
Procedure: Membranes were prepared from HEK293 cells transiently transfected with human HM74a and Gα0 protein. Assays were performed in 384-well format in a volume of 50 μL per assay point. Serial dilutions of compounds were prepared in the assay buffer (20 mM HEPES pH. 7.4, 100 mM NaCl, 10 mM MgCl2, 10 mg/L saponin and 10 μM GDP) and mixed with membranes (2 μg per assay point) and ^35S GTPγS (Amersham, 0.3 nM) in the assay buffer. The mixtures were incubated at room temperature for 30 mM and wheat germ agglutinin SPA beads (Amersham) (0.2 mg per assay point) in the assay buffer were added. After […] incubation with agitation, plates were centrifuged at 1500 g for 5 mM and bound ^35S GTPγS was determined by counting on a TopCount scintillation counter. […] For example, the compound of Example 1 has an EC50 of 80 nM in this assay.

mature adipocytes = experiment: Adipocyte lipolysis assay; assay type: cell-based; details: glycerol in supernatant after overnight culture with IBMX (100 μM), relative to DMSO controls
Procedure: Preadipocytes purchased from Zen Bio were plated at 8.7×10 ^4 cells/well in 96-well plates, differentiated for 14 days and mature adipocytes assayed during days 15 through 21. Adipocyte maturation is assessed by the presence of rounded cells with large lipid droplets in the cytoplasm. Following maturation, cells were washed and incubated overnight with IBMX (100 μM) and various concentrations of compound diluted in assay buffer containing a final DMSO concentration of 0.1%. After overnight culture, the glycerol concentration in the supernatants was determined with the Lipolysis Assay Kit purchased from Zen-Bio. Absorbance at 540 nm is directly proportional to the glycerol concentration in the sample. IC50 determinations were based on compound inhibition relative to DMSO controls.

[3] = cited from earlier work

T1 sequence (Q8TDS4 whole entry): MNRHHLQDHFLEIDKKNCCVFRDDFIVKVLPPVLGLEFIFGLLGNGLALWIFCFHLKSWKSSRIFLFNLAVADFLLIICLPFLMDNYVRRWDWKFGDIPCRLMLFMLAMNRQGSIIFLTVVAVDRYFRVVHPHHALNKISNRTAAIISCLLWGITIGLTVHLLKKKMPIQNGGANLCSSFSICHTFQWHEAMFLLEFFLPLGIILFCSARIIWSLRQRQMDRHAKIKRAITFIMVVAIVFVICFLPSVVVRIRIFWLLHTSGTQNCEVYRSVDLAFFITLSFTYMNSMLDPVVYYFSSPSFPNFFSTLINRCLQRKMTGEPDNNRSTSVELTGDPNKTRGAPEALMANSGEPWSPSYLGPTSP

IC50 (human HM74a [1]): 20 nM
EC50 (human HM74a [2]): 80 nM
Compound: CCCCCn1c2nc(C(F)(F)F)[nH]c2c(=O)n2c(C)nnc12 [Example 1, 3-methyl-9-pentyl-7-(trifluoromethyl)-6,9-dihydro-5H-[1,2,4]triazolo[4,3-a]purin-5-one]

IC50 (mature adipocytes): 37 nM
Compound: CCCCCn1c2nc(Br)[nH]c2c(=O)n2c(CCc3nc(Cc4ccncc4)no3)nnc12 [Example 77, 7-bromo-9-pentyl-3-{2-[3-(pyridine-4-ylmethyl)-1,2,4-oxadiazol-5-yl]ethyl}-6,9-dihydro-5H-[1,2,4]triazolo[4,3-a]purin-5-one]

Compound: O=C1[C@H](CC[C@H](O)c2ccc(F)cc2)[C@@H](c2ccc(O)cc2)N1c1ccc(F)cc1 [Ezetimibe]
maximal LDL reductions ([3]; co-formulated with a statin): exceed 60%
lowers LDL ([3]; monotherapy): 20%

Compound: O=C(O)c1cccnc1 [Nicotinic acid, nicotinic acid]
lowering circulating plasma LDL ([3]; human, in vivo): 16%
lowering triglycerides ([3]; human, in vivo): 38%
raising HDL levels ([3]; human, in vivo): 20-30%
